From patent US9340590B2 (priority 2011, dated 2016) come the findings set out here.

Where two headings read alike, the source gives them in different places. Positions of bridges follow the written chain, without caps; N, C: chain ends. Non-standard residues stand in square brackets, D forms with d. Residues, ends and D or L forms follow the SMILES beside them. 1Nal = N[C@@H](Cc1cccc2ccccc12)C(=O)O; Arg(Me) = CNC(=N)NCCC[C@H](N)C(=O)O A value given as a limit tells only on which side of the number the result lay.

What all share (test): cell-based
The target in assay [1] is hNav1.7 (Homo sapiens, UniProt Q15858). The assay is classed as cell-based.
Chain of hNav1.7 (Q15858 whole entry, looked up): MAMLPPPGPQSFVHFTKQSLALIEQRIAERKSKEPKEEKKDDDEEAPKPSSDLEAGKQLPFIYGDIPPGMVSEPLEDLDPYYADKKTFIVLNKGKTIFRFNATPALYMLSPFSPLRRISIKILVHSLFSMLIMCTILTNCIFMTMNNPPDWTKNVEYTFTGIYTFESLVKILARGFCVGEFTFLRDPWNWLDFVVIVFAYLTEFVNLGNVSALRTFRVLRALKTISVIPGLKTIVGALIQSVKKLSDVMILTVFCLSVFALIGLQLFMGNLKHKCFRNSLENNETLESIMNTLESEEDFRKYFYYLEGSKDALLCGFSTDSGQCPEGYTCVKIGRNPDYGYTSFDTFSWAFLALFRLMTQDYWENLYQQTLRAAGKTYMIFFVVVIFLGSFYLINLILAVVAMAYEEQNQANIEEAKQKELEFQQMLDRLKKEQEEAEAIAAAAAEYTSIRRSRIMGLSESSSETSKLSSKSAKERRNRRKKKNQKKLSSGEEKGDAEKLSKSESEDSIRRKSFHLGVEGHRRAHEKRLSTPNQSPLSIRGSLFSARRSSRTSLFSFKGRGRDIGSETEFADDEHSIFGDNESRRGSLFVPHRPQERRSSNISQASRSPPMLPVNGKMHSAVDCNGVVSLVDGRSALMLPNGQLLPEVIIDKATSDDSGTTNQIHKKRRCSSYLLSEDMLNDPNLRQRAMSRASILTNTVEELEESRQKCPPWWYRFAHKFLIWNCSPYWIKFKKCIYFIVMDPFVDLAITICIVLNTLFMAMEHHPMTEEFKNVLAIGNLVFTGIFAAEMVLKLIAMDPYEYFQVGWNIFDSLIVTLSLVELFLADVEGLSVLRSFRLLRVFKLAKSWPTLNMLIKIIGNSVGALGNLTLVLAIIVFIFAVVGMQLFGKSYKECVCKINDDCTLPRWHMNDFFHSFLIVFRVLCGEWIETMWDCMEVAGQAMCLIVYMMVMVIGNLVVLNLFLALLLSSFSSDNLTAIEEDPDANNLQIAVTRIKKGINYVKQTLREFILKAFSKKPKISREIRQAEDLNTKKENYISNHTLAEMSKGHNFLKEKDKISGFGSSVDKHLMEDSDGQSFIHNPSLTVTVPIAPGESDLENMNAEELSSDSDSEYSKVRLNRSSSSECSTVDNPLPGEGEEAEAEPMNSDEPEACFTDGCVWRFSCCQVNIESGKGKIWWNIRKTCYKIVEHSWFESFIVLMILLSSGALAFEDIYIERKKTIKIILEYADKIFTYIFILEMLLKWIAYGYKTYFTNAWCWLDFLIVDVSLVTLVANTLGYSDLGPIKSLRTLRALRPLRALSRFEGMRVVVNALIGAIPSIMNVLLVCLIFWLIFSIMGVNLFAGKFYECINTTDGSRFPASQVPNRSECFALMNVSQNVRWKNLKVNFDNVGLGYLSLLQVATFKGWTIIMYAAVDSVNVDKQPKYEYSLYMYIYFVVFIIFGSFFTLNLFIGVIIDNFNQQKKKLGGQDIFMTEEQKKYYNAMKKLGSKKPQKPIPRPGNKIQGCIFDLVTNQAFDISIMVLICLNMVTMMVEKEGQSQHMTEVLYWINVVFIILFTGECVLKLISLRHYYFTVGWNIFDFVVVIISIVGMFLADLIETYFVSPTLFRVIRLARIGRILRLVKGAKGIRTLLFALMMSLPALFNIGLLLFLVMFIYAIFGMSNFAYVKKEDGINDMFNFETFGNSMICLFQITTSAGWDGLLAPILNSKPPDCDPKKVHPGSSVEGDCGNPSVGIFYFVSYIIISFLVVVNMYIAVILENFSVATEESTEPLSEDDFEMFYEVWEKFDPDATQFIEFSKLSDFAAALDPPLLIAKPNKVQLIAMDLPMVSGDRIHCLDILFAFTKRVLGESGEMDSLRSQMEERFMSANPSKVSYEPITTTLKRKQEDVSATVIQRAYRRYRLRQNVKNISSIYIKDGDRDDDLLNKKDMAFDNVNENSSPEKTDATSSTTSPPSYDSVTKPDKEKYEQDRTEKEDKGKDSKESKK
Assay [2] addresses hNav1.3 (Homo sapiens, UniProt Q9NY46). The following applies: IonWorks Quattro, read-out: IWQ Use Nav1.3. In general terms: In patch-clamp work, channel activity is measured electrically.
For assay [3], the target named is hNav1.5 (Homo sapiens, UniProt Q14524).
Chain of hNav1.5 (Q14524 whole entry, looked up): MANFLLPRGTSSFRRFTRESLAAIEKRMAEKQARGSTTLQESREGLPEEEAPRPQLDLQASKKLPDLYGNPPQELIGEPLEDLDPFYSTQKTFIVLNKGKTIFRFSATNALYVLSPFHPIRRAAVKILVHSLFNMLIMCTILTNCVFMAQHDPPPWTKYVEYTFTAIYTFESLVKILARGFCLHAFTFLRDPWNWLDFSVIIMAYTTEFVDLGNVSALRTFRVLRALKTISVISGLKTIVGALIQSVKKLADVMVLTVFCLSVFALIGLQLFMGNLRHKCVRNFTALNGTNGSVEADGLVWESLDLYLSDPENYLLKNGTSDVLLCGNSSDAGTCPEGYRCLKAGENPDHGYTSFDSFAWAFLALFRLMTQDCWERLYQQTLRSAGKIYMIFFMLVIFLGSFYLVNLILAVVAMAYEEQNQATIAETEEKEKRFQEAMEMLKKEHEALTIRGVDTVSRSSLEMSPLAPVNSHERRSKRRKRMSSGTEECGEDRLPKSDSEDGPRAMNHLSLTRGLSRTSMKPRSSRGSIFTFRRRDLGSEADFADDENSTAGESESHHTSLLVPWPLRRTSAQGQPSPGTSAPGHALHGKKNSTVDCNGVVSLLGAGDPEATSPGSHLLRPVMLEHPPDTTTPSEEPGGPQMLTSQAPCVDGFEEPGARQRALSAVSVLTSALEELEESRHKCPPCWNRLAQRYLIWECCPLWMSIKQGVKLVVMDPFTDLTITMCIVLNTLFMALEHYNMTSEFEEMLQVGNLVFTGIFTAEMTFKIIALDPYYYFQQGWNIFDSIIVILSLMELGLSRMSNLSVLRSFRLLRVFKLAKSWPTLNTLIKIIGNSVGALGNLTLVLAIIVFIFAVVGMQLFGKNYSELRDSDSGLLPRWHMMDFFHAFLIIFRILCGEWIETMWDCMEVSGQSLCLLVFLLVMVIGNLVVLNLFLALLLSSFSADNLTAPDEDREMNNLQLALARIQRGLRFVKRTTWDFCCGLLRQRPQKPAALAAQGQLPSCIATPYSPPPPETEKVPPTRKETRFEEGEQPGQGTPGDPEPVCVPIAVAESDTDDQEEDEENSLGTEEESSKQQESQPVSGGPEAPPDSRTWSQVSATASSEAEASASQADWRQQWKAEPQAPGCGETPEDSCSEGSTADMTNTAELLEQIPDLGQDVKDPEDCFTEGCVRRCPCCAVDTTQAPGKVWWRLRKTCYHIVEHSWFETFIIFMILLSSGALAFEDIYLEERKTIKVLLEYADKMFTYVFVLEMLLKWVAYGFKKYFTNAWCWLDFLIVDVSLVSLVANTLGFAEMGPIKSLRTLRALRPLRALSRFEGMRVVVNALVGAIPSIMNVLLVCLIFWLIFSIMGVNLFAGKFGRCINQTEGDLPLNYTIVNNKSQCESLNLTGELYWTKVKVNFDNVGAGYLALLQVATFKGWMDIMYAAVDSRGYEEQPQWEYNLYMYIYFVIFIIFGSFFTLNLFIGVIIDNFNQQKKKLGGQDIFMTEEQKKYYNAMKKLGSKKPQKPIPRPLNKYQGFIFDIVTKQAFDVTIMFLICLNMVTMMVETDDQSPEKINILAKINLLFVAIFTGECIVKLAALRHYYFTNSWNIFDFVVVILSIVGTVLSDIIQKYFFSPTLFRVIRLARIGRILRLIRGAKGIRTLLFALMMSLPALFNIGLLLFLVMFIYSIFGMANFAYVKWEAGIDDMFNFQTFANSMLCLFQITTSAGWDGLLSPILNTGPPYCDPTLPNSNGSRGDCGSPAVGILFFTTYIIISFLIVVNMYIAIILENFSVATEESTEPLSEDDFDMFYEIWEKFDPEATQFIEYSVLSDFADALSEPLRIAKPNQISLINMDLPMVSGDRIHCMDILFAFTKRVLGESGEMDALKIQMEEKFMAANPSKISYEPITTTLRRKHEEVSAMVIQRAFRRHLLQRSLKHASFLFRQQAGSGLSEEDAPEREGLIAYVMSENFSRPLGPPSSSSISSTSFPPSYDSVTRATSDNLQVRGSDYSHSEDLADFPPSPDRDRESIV
The mark [4] stands for this setting: IonWorks Quattro, use-dependent protocol, hNav1.7, read-out: IWQ Use Nav1.7.
The mark [5] stands for this setting: use-dependent protocol, hNav1.3.
The mark [6] stands for this setting: IonWorks Quattro, use-dependent protocol, hNav1.5, read-out: IWQ Use Nav1.5.
Setting [7] is: IonWorks Quattro, use-dependent block, hNav1.5, read-out: IWQ Use Nav1.5.

Turning to `CC[C@H](C)[C@@H]1NC(=O)[C@@H]2CSSC[C@@H]3NC(=O)[C@H](C(C)C)NC(=O)[C@H](CC(C)C)NC(=O)[C@H](CC(N)=O)NC(=O)[C@@H]4CCCN4C(=O)[C@H](CCCNC(=N)N)NC(=O)[C@H](CSSC[C@H](NC(=O)[C@@H](N)CC(=O)O)C(=O)N[C@@H](CC(C)C)C(=O)NCC(=O)N[C@@H](CCc4ccccc4)C(=O)N[C@@H](CCSC)C(=O)N[C@@H](CCCNC(=N)N)C(=O)N[C@@H](CCCCN)C(=O)N2)NC(=O)[C@H](CSSC[C@@H](C(=O)N[C@@H](CCCCN)C(=O)N[C@@H](Cc2ccc(O)cc2)C(=O)N[C@H](C(=O)N[C@@H](Cc2ccccc2)C(N)=O)C(C)C)NC(=O)[C@H](Cc2c[nH]c4ccccc24)NC(=O)[C@H](CCCCN)NC(=O)[C@H](Cc2c[nH]cn2)NC(=O)[C@H]([C@@H](C)O)NC(=O)[C@H](CCCNC(=N)N)NC(=O)[C@H](CO)NC3=O)NC(=O)[C@H](CCCCN)NC(=O)[C@H](CC(=O)O)NC(=O)[C@H](CC(N)=O)NC(=O)[C@H](CC(=O)O)NC(=O)[C@@H]2CCCN2C1=O` [compound 690], the results for the IC50 in assay [1] (setting [4]), in assay [2] (setting [5]) and in assay [3] (IWQ Use Nav1.5) were 90 nM, 180 nM and greater than 5 µM, respectively.
As for `CC[C@H](C)[C@@H]1NC(=O)[C@@H]2CSSC[C@@H]3NC(=O)[C@H](C(C)C)NC(=O)[C@H](CC(C)C)NC(=O)[C@H](CC(N)=O)NC(=O)[C@@H]4CCCN4C(=O)[C@H](CCCNC(=N)N)NC(=O)[C@H](CSSC[C@H](NC(=O)[C@@H](N)CC(=O)O)C(=O)N[C@@H](CC(C)C)C(=O)NCC(=O)N(C)[C@@H](CC(C)C)C(=O)N[C@@H](CC(C)C)C(=O)N[C@@H](CCCNC(=N)N)C(=O)N[C@@H](CCCCN)C(=O)N2)NC(=O)[C@H](CSSC[C@@H](C(=O)N[C@@H](CCCCN)C(=O)N[C@@H](Cc2ccc(O)cc2)C(=O)N[C@H](C(=O)N[C@@H](Cc2ccccc2)C(N)=O)C(C)C)NC(=O)[C@H](Cc2c[nH]c4ccccc24)NC(=O)[C@H](CCCCN)NC(=O)[C@H](Cc2c[nH]cn2)NC(=O)[C@H]([C@@H](C)O)NC(=O)[C@H](CCCNC(=N)N)NC(=O)[C@H](CO)NC3=O)NC(=O)[C@H](CCCCN)NC(=O)[C@H](CC(=O)O)NC(=O)[C@H](CC(N)=O)NC(=O)[C@H](CC(=O)O)NC(=O)[C@@H]2CCCN2C1=O` [compound 673], the IC50 in assay [1] (setting [4]) is 170 nM; in assay [2] (setting [5]), 690 nM; in assay [3] (setting [6]) it was greater than 5 µM.
`CC[C@H](C)[C@@H]1NC(=O)[C@@H]2CSSC[C@@H]3NC(=O)[C@H](C(C)C)NC(=O)[C@H](CC(C)C)NC(=O)[C@H](CC(N)=O)NC(=O)[C@@H]4CCCN4C(=O)[C@H](CCCNC(=N)N)NC(=O)[C@H](CSSC[C@H](NC(=O)[C@@H](N)CC(=O)O)C(=O)N[C@@H](CC(C)C)C(=O)NCC(=O)N[C@@H](C4CCCC4)C(=O)N[C@@H](CC(C)C)C(=O)N[C@@H](CCCNC(=N)N)C(=O)N[C@@H](CCCCN)C(=O)N2)NC(=O)[C@H](CSSC[C@@H](C(=O)N[C@@H](CCCCN)C(=O)N[C@@H](Cc2ccc(O)cc2)C(=O)N[C@H](C(=O)N[C@@H](Cc2ccccc2)C(N)=O)C(C)C)NC(=O)[C@H](Cc2c[nH]c4ccccc24)NC(=O)[C@H](CCCCN)NC(=O)[C@H](Cc2c[nH]cn2)NC(=O)[C@H]([C@@H](C)O)NC(=O)[C@H](CCCNC(=N)N)NC(=O)[C@H](CO)NC3=O)NC(=O)[C@H](CCCCN)NC(=O)[C@H](CC(=O)O)NC(=O)[C@H](CC(N)=O)NC(=O)[C@H](CC(=O)O)NC(=O)[C@@H]2CCCN2C1=O` [compound 663]: the IC50 in assay [1] (setting [4]) is 59 nM; in assay [2] (setting [5]), 240 nM; in assay [3] (setting [6]), greater than 5 µM.
Consider `CC[C@H](C)[C@@H]1NC(=O)[C@@H]2CSSC[C@@H]3NC(=O)[C@H](C(C)C)NC(=O)[C@H](CC(C)C)NC(=O)[C@H](CC(N)=O)NC(=O)[C@@H]4CCCN4C(=O)[C@H](CCCNC(=N)N)NC(=O)[C@H](CSSC[C@H](NC(=O)[C@@H](N)CC(=O)O)C(=O)N[C@@H](CC(C)C)C(=O)NCC(=O)N[C@@H](Cc4ccccc4)C(=O)N[C@@H](CCSC)C(=O)N[C@@H](CCCNC(=N)N)C(=O)N[C@@H](CCCCN)C(=O)N2)NC(=O)[C@H](CSSC[C@@H](C(=O)N[C@@H](CCCCN)C(=O)N[C@@H](Cc2ccc(O)cc2)C(=O)N[C@H](C(=O)N[C@@H](Cc2ccccc2)C(N)=O)C(C)C)NC(=O)[C@H](Cc2c[nH]c4ccccc24)NC(=O)[C@H](CCCCN)NC(=O)[C@H](Cc2cnc[nH]2)NC(=O)[C@H](C)NC(=O)[C@H](CCCNC(=N)N)NC(=O)[C@H](CO)NC3=O)NC(=O)[C@H](CCCCN)NC(=O)[C@H](CC(=O)O)NC(=O)[C@H](CC(N)=O)NC(=O)[C@H](CC(=O)O)NC(=O)[C@@H]2CCCN2C1=O` [compound 10] (H-DCLGFMRKCIPDNDKCCRPNLVCSRAHKWCKYVF-NH2; disulfide 2-17, 9-23, 16-30), for which the IC50 was found to be 250 nM in assay [1] (Table 22, IonWorks Quattro, use, […], read-out: IWQ Use Nav1.7); 170 nM in assay [2] (Table 22, use, […]); 10.5 µM in assay [3] (IWQ Use Nav1.5 (μM)).
On to `CC[C@H](C)[C@@H]1NC(=O)[C@@H]2CSSC[C@@H]3NC(=O)[C@H](C(C)C)NC(=O)[C@H](CC(C)C)NC(=O)[C@H](CC(N)=O)NC(=O)[C@@H]4CCCN4C(=O)[C@H](CCCNC(=N)N)NC(=O)[C@H](CSSC[C@H](NC(=O)[C@@H](N)CC(=O)O)C(=O)N[C@@H](CC(C)C)C(=O)NCC(=O)N[C@@H](C)C(=O)N[C@@H](CCSC)C(=O)N[C@@H](CCCNC(=N)N)C(=O)N[C@@H](CCCCN)C(=O)N2)NC(=O)[C@H](CSSC[C@@H](C(=O)N[C@@H](CCCCN)C(=O)N[C@@H](Cc2ccc(O)cc2)C(=O)N[C@H](C(=O)N[C@@H](Cc2ccccc2)C(N)=O)C(C)C)NC(=O)[C@H](Cc2c[nH]c4ccccc24)NC(=O)[C@H](CCCNC(=N)NC)NC(=O)[C@H](Cc2c[nH]cn2)NC(=O)[C@H]([C@@H](C)O)NC(=O)[C@H](CCCNC(=N)N)NC(=O)[C@H](CO)NC3=O)NC(=O)[C@H](CCCCN)NC(=O)[C@H](CC(=O)O)NC(=O)[C@H](CC(N)=O)NC(=O)[C@H](CC(=O)O)NC(=O)[C@@H]2CCCN2C1=O` [compound 745] (H-DCLGAMRKCIPDNDKCCRPNLVCSRTH[Arg(Me)]WCKYVF-NH2; disulfide 2-17, 9-23, 16-30), for which the IC50 in assay [1] (IonWorks Quattro, use-dependent block, hNav1.7, read-out: IWQ Use Nav1.7) came out at 250 nM; in assay [2] (use-dependent block, hNav1.3) it was 500 nM; in assay [3] (setting [7]) it was 40 µM.
Consider `CC[C@H](C)[C@@H]1NC(=O)[C@@H]2CSSC[C@@H]3NC(=O)[C@H](C(C)C)NC(=O)[C@H](CC(C)C)NC(=O)[C@H](CC(N)=O)NC(=O)[C@@H]4CCCN4C(=O)[C@H](CCCNC(=N)N)NC(=O)[C@H](CSSC[C@H](NC(=O)[C@@H](N)CC(=O)O)C(=O)N[C@@H](CC(C)C)C(=O)NCC(=O)N[C@@H](C)C(=O)N[C@@H](Cc4c[nH]c5ccccc45)C(=O)N[C@@H](CCCNC(=N)N)C(=O)N[C@@H](CCCCN)C(=O)N2)NC(=O)[C@H](CSSC[C@@H](C(=O)N[C@@H](CCCCN)C(=O)N[C@@H](Cc2ccc(O)cc2)C(=O)N[C@H](C(=O)N[C@@H](Cc2ccccc2)C(N)=O)C(C)C)NC(=O)[C@H](Cc2c[nH]c4ccccc24)NC(=O)[C@H](CCCCN)NC(=O)[C@H](Cc2cnc[nH]2)NC(=O)[C@H]([C@@H](C)O)NC(=O)[C@H](CCCNC(=N)N)NC(=O)[C@H](CO)NC3=O)NC(=O)[C@H](CCCCN)NC(=O)[C@H](CC(=O)O)NC(=O)[C@H](CC(N)=O)NC(=O)[C@H](CC(=O)O)NC(=O)[C@@H]2CCCN2C1=O` [compound 261] (H-DCLGAWRKCIPDNDKCCRPNLVCSRTHKWCKYVF-NH2; disulfide 2-17, 9-23, 16-30), for which the IC50 in assay [1] was found to be 1010 nM; in assay [2] (use-dependent block, hNav1.3), 670 nM; in assay [3] (setting [7]), 5 µM.
On to `CC[C@H](C)[C@@H]1NC(=O)[C@@H]2CSSC[C@@H]3NC(=O)[C@H](C(C)C)NC(=O)[C@H](CC(C)C)NC(=O)[C@H](CC(N)=O)NC(=O)[C@@H]4CCCN4C(=O)[C@H](CCCNC(=N)N)NC(=O)[C@H](CSSC[C@H](NC(=O)[C@@H](N)CC(=O)O)C(=O)N[C@@H](CC(C)C)C(=O)NCC(=O)N[C@@H](Cc4ccccc4)C(=O)N[C@@H](Cc4ccccc4)C(=O)N[C@@H](CCCNC(=N)N)C(=O)N[C@@H](CCCCN)C(=O)N2)NC(=O)[C@H](CSSC[C@@H](C(=O)N[C@@H](CCCCN)C(=O)N[C@@H](Cc2ccc(O)cc2)C(=O)N[C@H](C(=O)N[C@@H](Cc2cccc4ccccc24)C(N)=O)C(C)C)NC(=O)[C@H](Cc2c[nH]c4ccccc24)NC(=O)[C@H](CCCCN)NC(=O)[C@H](Cc2c[nH]cn2)NC(=O)[C@H]([C@@H](C)O)NC(=O)[C@H](CCCNC(=N)N)NC(=O)[C@H](CO)NC3=O)NC(=O)[C@H](CCCCN)NC(=O)[C@H](CC(=O)O)NC(=O)[C@H](CC(N)=O)NC(=O)[C@H](CC(=O)O)NC(=O)[C@@H]2CCCN2C1=O` [compound 561] (H-DCLGFFRKCIPDNDKCCRPNLVCSRTHKWCKYV[1Nal]-NH2; disulfide 2-17, 9-23, 16-30), for which the IC50 in assay [1] (IonWorks Quattro, use-dependent block, read-out: IWQ Use Nav1.7) is 11 nM; in assay [2] (use-dependent block), 7 nM; in assay [3] (IonWorks Quattro, use-dependent block, read-out: IWQ Use Nav1.5), 2.2 µM.
